Measurements taken from the CheMixHub viscosity set.

Experiment: xn = mol fraction of the nth substance listed

CC1CCCCC1 + C1COCCO1
303.15 K, 101.3 kPa
Conditions | viscosity [mPa·s]
x2 = 0.1001 | 0.6334
x2 = 0.2013 | 0.6394
x2 = 0.296 | 0.653
x2 = 0.3948 | 0.6802
x2 = 0.5046 | 0.7196
x2 = 0.5993 | 0.7612
x2 = 0.7003 | 0.8213
x2 = 0.7956 | 0.8868
x2 = 0.896 | 0.9775

CCOC(=O)c1ccccc1 + C1COCCO1
viscosity [mPa·s], 101 kPa
Conditions | x1 = 0.0639 | x1 = 0.1304 | x1 = 0.1626 | x1 = 0.2849 | x1 = 0.3735 | x1 = 0.4716 | x1 = 0.5805 | x1 = 0.7048 | x1 = 0.8402
303.15 K | 1.118 | 1.155 | 1.172 | 1.246 | 1.296 | 1.369 | 1.445 | 1.535 | 1.633
308.15 K | 1.026 | 1.062 | 1.078 | 1.146 | 1.195 | 1.259 | 1.33 | 1.416 | 1.502
313.15 K | 0.972 | 1.001 | 1.013 | 1.069 | 1.108 | 1.16 | 1.214 | 1.279 | 1.348

[Li+].[O-][Cl+3]([O-])([O-])[O-] + C1COCO1
101 kPa, x1 = 0.07
Conditions | viscosity [mPa·s]
303.15 K | 1
308.15 K | 0.93
313.15 K | 0.89
318.15 K | 0.85
323.15 K | 0.81

Cc1cccc([N+](=O)[O-])c1 + CC1CCCCC1
303.15 K, 101.33 kPa
Conditions | viscosity [mPa·s]
x1 = 0.202 | 0.77
x1 = 0.4 | 0.89
x1 = 0.6 | 1.09
x1 = 0.799 | 1.43

C=C(C)C(=O)OCC + CC#N
viscosity [mPa·s], 101 kPa
Conditions | 298.15 K | 303.15 K | 308.15 K | 313.15 K | 318.15 K
x2 = 0.0556 | 0.6285 | 0.5725 | 0.5246 | 0.4857 | 0.4542
x2 = 0.1112 | 0.6154 | 0.562 | 0.5162 | 0.479 | 0.4489
x2 = 0.1631 | 0.6027 | 0.5516 | 0.5079 | 0.4722 | 0.4433
x2 = 0.2147 | 0.5894 | 0.5408 | 0.499 | 0.4649 | 0.4372
x2 = 0.2795 | 0.5723 | 0.5266 | 0.4872 | 0.455 | 0.4287
x2 = 0.3446 | 0.5545 | 0.5115 | 0.4746 | 0.4443 | 0.4194
x2 = 0.4132 | 0.5349 | 0.495 | 0.4606 | 0.4322 | 0.4088
x2 = 0.4819 | 0.5147 | 0.4777 | 0.4458 | 0.4194 | 0.3974
x2 = 0.5597 | 0.4911 | 0.4574 | 0.4283 | 0.404 | 0.3836
x2 = 0.6375 | 0.4667 | 0.4364 | 0.41 | 0.3878 | 0.3689
x2 = 0.7251 | 0.4385 | 0.4119 | 0.3885 | 0.3686 | 0.3515
x2 = 0.8113 | 0.4101 | 0.387 | 0.3666 | 0.349 | 0.3334
x2 = 0.9014 | 0.3798 | 0.3604 | 0.343 | 0.3277 | 0.3137
x2 = 0.9542 | 0.3618 | 0.3445 | 0.3289 | 0.3148 | 0.3018

CCOC(=O)c1ccccc1 + CC#N
viscosity [mPa·s], 101.33 kPa
Conditions | x1 = 0.129 | x1 = 0.25 | x1 = 0.362 | x1 = 0.469 | x1 = 0.571 | x1 = 0.657 | x1 = 0.756 | x1 = 0.832 | x1 = 0.914
293.15 K | 0.465 | 0.496 | 0.554 | 0.627 | 0.714 | 0.843 | 1.056 | 1.362 | 1.764
303.15 K | 0.416 | 0.444 | 0.495 | 0.551 | 0.621 | 0.721 | 0.897 | 1.12 | 1.418
313.15 K | 0.378 | 0.403 | 0.443 | 0.491 | 0.549 | 0.631 | 0.764 | 0.939 | 1.161
323.15 K | 0.34 | 0.362 | 0.397 | 0.436 | 0.485 | 0.55 | 0.659 | 0.799 | 0.972

[Li+].[O-][Cl+3]([O-])([O-])[O-] + CC#N
viscosity [mPa·s], 101 kPa
Conditions | x1 = 0.0128 | x1 = 0.0255 | x1 = 0.0301 | x1 = 0.536
296.15 K | 0.444 | – | – | 0.66
297.15 K | – | 0.53 | – | –
313.15 K | 0.399 | 0.473 | 0.958 | 0.628

CCOC(=O)c1ccccc1 + CC(=O)CC(C)C
viscosity [mPa·s], 101.33 kPa
Conditions | 293.15 K | 303.15 K
x2 = 0.0752 | 1.89 | 1.55
x2 = 0.1491 | 1.675 | 1.376
x2 = 0.2022 | 1.58 | 1.303
x2 = 0.3364 | 1.375 | 1.15
x2 = 0.4004 | 1.277 | 1.079
x2 = 0.5355 | 1.109 | 0.94
x2 = 0.6213 | 0.988 | 0.85
x2 = 0.7165 | 0.88 | 0.757
x2 = 0.7942 | 0.797 | 0.69
x2 = 0.8805 | 0.719 | 0.625
x2 = 0.9154 | 0.686 | 0.599
x2 = 0.9549 | 0.648 | 0.569

CNS(C)(=O)=O + CC(=O)N(C)C
303.15 K, 101.33 kPa
Conditions | viscosity [mPa·s]
x1 = 0.1009 | 1.104
x1 = 0.2022 | 1.473
x1 = 0.2303 | 1.578
x1 = 0.4082 | 2.571
x1 = 0.4802 | 3.127
x1 = 0.6009 | 4.202
x1 = 0.7019 | 5.204
x1 = 0.7958 | 6.184
x1 = 0.8966 | 7.185

CCOC(=O)c1ccccc1 + CC(=O)O
298.15 K, 101 kPa
Conditions | viscosity [mPa·s]
x2 = 0.1041 | 1.948
x2 = 0.2129 | 1.874
x2 = 0.3045 | 1.797
x2 = 0.3882 | 1.727
x2 = 0.475 | 1.651
x2 = 0.5822 | 1.538
x2 = 0.6826 | 1.446
x2 = 0.7956 | 1.322
x2 = 0.9132 | 1.202

CCCCCl + CC(C)(C)O
viscosity [mPa·s], 101 kPa
Conditions | x1 = 0.1052 | x1 = 0.2087 | x1 = 0.315 | x1 = 0.4159 | x1 = 0.5172 | x1 = 0.6059 | x1 = 0.7101 | x1 = 0.8039 | x1 = 0.8976
298.15 K | 2.188 | 1.359 | 0.991 | 0.7867 | 0.6596 | 0.582 | – | 0.4746 | 0.4434
313.15 K | 1.279 | 0.9194 | 0.7181 | 0.5981 | 0.5189 | – | 0.4243 | 0.3963 | 0.377
